Reference: PubChem BioAssay AID256 (DTP/NCI, 2004)
Toxic doses and inconclusive results are not listed. The calls were made as follows: active = survival T/C of 150% or more; inactive = T/C below 125% in these data.

Test system: CD2F1 mice, L1210 leukemia ip, survival T/C
Assay: NCI In Vivo Anticancer Drug Screen. Data for tumor model L1210 Leukemia (intraperitoneal) in CD2F1 (CDF1) mice
Details: higher = longer survival
Procedure, shortened: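 Ratio T/C, where T is the treated-group value and C the vehicle-dosed control value, from mice implanted with a transplantable tumor.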

[1] = endpoint: mean survival time, dose: 100.0 mg/kg/injection, schedule: Q01DX001 (ip), vehicle: saline with Tween-80
[2] = endpoint: mean survival time, dose: 200.0 mg/kg/injection, schedule: Q01DX001 (ip), vehicle: saline with Tween-80
[3] = endpoint: mean survival time, dose: 100.0 mg/kg/injection, schedule: Q04DX003 (ip), vehicle: saline with Tween-80
[4] = endpoint: mean survival time, dose: 200.0 mg/kg/injection, schedule: Q04DX003 (ip), vehicle: saline with Tween-80
[5] = endpoint: mean survival time, dose: 400.0 mg/kg/injection, schedule: Q04DX003 (ip), vehicle: saline with Tween-80

Measured: T/C

c1cc[n+](CC[n+]2ccccc2)cc1
inactive: endpoint: mean survival time, dose: 100.0 mg/kg/injection, schedule: Q04DX003 (ip), vehicle: saline 102 % of control | endpoint: mean survival time, dose: 200.0 mg/kg/injection, schedule: Q04DX003 (ip), vehicle: saline 100 % of control | endpoint: mean survival time, dose: 400.0 mg/kg/injection, schedule: Q04DX003 (ip), vehicle: saline 111 % of control

O=C1CC(=O)C(CCc2cccc3ccccc23)C1=O (configuration not stated)
inactive: [1] 86 % of control | endpoint: mean survival time, dose: 100.0 mg/kg/injection, schedule: Q04DX002 (ip), vehicle: saline with Tween-80 100 % of control | [2] 94 % of control | endpoint: mean survival time, dose: 200.0 mg/kg/injection, schedule: Q04DX002 (ip), vehicle: saline with Tween-80 93 % of control | endpoint: mean survival time, dose: 400.0 mg/kg/injection, schedule: Q01DX001 (ip), vehicle: saline with Tween-80 105 % of control

CCOC(=O)C1=C(N)SC(=O)C1
inactive: [3] 100 % of control | [4] 104 % of control | [5] 95 % of control

CC1/C=C/C=C/CC/C=C/C=C/C=C/C=C/C(OC2OC(C)C(O)C(N)C2O)CC2OC(CC(O)C(O)CCC(O)CC(O)CC(O)CC(=O)OC(C)C(C)C1O)CC(O)C2C(=O)O (configuration not stated)
inactive: endpoint: mean survival time, dose: 9.5 mg/kg/injection, schedule: Q01DX009 (ip), vehicle: saline sonified 95 % of control | endpoint: mean survival time, dose: 9.5 mg/kg/injection, schedule: Q04DX003 (ip), vehicle: saline sonified 98 % of control | endpoint: mean survival time, dose: 19.0 mg/kg/injection, schedule: Q01DX009 (ip), vehicle: saline sonified 93 % of control | endpoint: mean survival time, dose: 19.0 mg/kg/injection, schedule: Q04DX003 (ip), vehicle: saline sonified 92 % of control | endpoint: mean survival time, dose: 38.0 mg/kg/injection, schedule: Q01DX009 (ip), vehicle: saline sonified 87 % of control | endpoint: mean survival time, dose: 38.0 mg/kg/injection, schedule: Q04DX003 (ip), vehicle: saline sonified 100 % of control | endpoint: median survival time, dose: 6.25 mg/kg/injection, schedule: Q01DX009 (ip), vehicle: saline with Tween-80 100 % of control | endpoint: median survival time, dose: 12.5 mg/kg/injection, schedule: Q01DX009 (ip), vehicle: saline with Tween-80 100 % of control | endpoint: median survival time, dose: 25.0 mg/kg/injection, schedule: Q01DX009 (ip), vehicle: saline with Tween-80 102 % of control | endpoint: median survival time, dose: 50.0 mg/kg/injection, schedule: Q01DX009 (ip), vehicle: saline with Tween-80 101 % of control | endpoint: median survival time, dose: 100.0 mg/kg/injection, schedule: Q01DX009 (ip), vehicle: saline with Tween-80 100 % of control

Cc1ccc(S(=O)(=O)OCC(O)C(O)C(O)C(O)COS(=O)(=O)c2ccc(C)cc2)cc1 (configuration not stated)
inactive: endpoint: mean survival time, dose: 50.0 mg/kg/injection, schedule: Q01DX001 (ip), vehicle: saline with Tween-80 96 % of control | [1] 96 % of control | [2] 96 % of control

O=C1C=CC(=O)O1 (tested in a mixture with another compound)
inactive: endpoint: mean survival time, dose: 1.56 mg/kg/injection, schedule: Q01DX001 (ip), vehicle: other 109 % of control | endpoint: mean survival time, dose: 1.56 mg/kg/injection, schedule: Q04DX003 (ip), vehicle: other 95 % of control | endpoint: mean survival time, dose: 3.12 mg/kg/injection, schedule: Q01DX001 (ip), vehicle: other 105 % of control | endpoint: mean survival time, dose: 3.12 mg/kg/injection, schedule: Q04DX003 (ip), vehicle: other 97 % of control | endpoint: mean survival time, dose: 6.25 mg/kg/injection, schedule: Q04DX003 (ip), vehicle: other 97 % of control | endpoint: mean survival time, dose: 50.0 mg/kg/injection, schedule: Q01DX001 (ip), vehicle: saline 115 % of control | endpoint: mean survival time, dose: 200.0 mg/kg/injection, schedule: Q01DX001 (ip), vehicle: saline 117 % of control | endpoint: mean survival time, dose: 400.0 mg/kg/injection, schedule: Q01DX001 (ip), vehicle: saline 117 % of control | endpoint: mean survival time, dose: 1000.0 mg/kg/injection, schedule: Q01DX001 (ip), vehicle: saline 121 % of control

C(=NCCN1CCOCC1)=NC1CCCCC1
inactive: endpoint: mean survival time, dose: 3.13 mg/kg/injection, schedule: Q01DX009 (ip), vehicle: saline with Tween-80 102 % of control | endpoint: mean survival time, dose: 6.25 mg/kg/injection, schedule: Q01DX009 (ip), vehicle: saline with Tween-80 91 % of control | endpoint: mean survival time, dose: 6.25 mg/kg/injection, schedule: Q04DX003 (ip), vehicle: saline with Tween-80 100 % of control | endpoint: mean survival time, dose: 12.5 mg/kg/injection, schedule: Q01DX009 (ip), vehicle: saline with Tween-80 104 % of control | endpoint: mean survival time, dose: 12.5 mg/kg/injection, schedule: Q04DX003 (ip), vehicle: saline with Tween-80 92 % of control

CCOC(=O)COC(CC[P+](c1ccccc1)(c1ccccc1)c1ccccc1)(C(=O)c1ccccc1)c1ccccc1 (configuration not stated)
inactive: endpoint: mean survival time, dose: 5.0 mg/kg/injection, schedule: Q01DX001 (ip), vehicle: saline with Tween-80 100 % of control | endpoint: mean survival time, dose: 6.25 mg/kg/injection, schedule: Q01DX001 (ip), vehicle: saline with Tween-80 102 % of control | endpoint: mean survival time, dose: 12.5 mg/kg/injection, schedule: Q01DX001 (ip), vehicle: saline with Tween-80 97 % of control | endpoint: mean survival time, dose: 20.0 mg/kg/injection, schedule: Q01DX001 (ip), vehicle: saline with Tween-80 109 % of control | endpoint: mean survival time, dose: 25.0 mg/kg/injection, schedule: Q01DX001 (ip), vehicle: saline with Tween-80 108 % of control

COC(=O)C(c1ccccc1)C(SCc1ccccc1)c1ccccc1 (configuration not stated)
inactive: [3] 103 % of control | [4] 95 % of control | [5] 98 % of control
